For two molecules, IC50 results are on record in patent US7253282B2 (Hoffman-La Roche Inc., priority 2004, dated 2007).

In test [1] the target is T1, GST-LXRα-LBD (human LXR alpha, aa 164 to 447) (Homo sapiens, UniProt Q13133).
T1 construct: human LXR alpha (aa 164 to 447); made in house; host or cells: E. coli BL21(pLysS)
T1 sequence (Q13133 164-447): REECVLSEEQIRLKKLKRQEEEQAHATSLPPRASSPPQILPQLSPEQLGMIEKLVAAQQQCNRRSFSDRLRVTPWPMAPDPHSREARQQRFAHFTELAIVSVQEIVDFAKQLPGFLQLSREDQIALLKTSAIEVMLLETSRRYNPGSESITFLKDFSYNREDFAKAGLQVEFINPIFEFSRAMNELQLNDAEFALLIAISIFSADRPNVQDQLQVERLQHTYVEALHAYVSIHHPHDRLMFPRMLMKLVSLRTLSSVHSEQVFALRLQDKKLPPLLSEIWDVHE
The test is described as follows: Radioligand binding assay (SPA), LXR alpha. The note with it: GST-LXRα-LBD on SPA beads, read-out: LXRalpha Binding IC50. An excerpt:
(§1) Mammalian expression vectors were constructed to express full-length human LXR alpha and LXR beta. Bacterial expression vectors were constructed to produce glutathione-s-transferase (GST) fused to the ligand binding domains (LBD) of human LXR alpha (aa 164 to 447) and human LXR beta (aa 155 to 460). To accomplish this, the portions of the sequences encoding the LBDs were amplified from full-length clones by PCR and then subcloned into the plasmid vectors. Final clones were verified by DNA sequence analysis (Willy et al., Genes Dev. 1995, 9:1033-45; Song et al., Proc Natl Acad Sci USA. 1994, 91:10809-13).
(§2) Induction, expression, and purification of GST-LBD fusion proteins were performed in E. coli strain BL21(pLysS) cells by standard methods (Ref: Current Protocols in Molecular Biology, Wiley Press, edited by Ausubel et al).
(§3) LXR alpha and LXR beta receptor binding were assayed in buffer consisting of 50 mM HEPES, pH 7.4, 10 mM NaCl, 5 mM MgCl2. For each 96-well reaction, 500 ng of GST-LXRα-LBD or 700 ng of GST-LXR beta-LBD fusion proteins were bound to 80 μg or 40 μg SPA beads (Pharmacia Amersham) respectively, in a final volume of 50 μl by shaking. […] All binding assays were performed in 96-well plates and the amount of bound ligand was measured on a Packard TopCount using OptiPlates (Packard). Dose response curves were measured within a range of concentration from 10^−10 M to 10^−4 M.

Test [2] addresses T2, GST-LXR beta-LBD (human LXR beta, aa 155 to 460) (Homo sapiens, UniProt P55055).
T2 construct: human LXR beta (aa 155 to 460); made in house; host or cells: E. coli BL21(pLysS)
T2 sequence (P55055 155-460): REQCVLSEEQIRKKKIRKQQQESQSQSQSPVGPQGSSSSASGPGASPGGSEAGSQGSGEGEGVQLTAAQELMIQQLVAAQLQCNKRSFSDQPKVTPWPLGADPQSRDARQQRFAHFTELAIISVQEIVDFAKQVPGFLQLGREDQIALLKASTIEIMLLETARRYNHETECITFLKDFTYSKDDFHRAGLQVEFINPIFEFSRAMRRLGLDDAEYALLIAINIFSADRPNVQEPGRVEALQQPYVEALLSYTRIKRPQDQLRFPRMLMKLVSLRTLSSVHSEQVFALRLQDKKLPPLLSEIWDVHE
The test is described as follows: Radioligand binding assay (SPA), LXR beta. The note with it: GST-LXR beta-LBD on SPA beads, read-out: LXRbeta Binding IC50.
Source text: as §1, §2, §3

Each structure is given as a SMILES string.

For `Cc1nn(C)c(Cl)c1S(=O)(=O)N(CC(F)(F)F)[C@H]1CC[C@H](C(O)(C(F)(F)F)C(F)(F)F)CC1` [Example 17], the IC50 (usually the midpoint of a concentration-inhibition curve) in test [1] turned out to be 1.5 µM; in test [2] it was 1.4 µM.
As to `O=S(=O)(c1ccccc1)N(CC(F)(F)F)[C@H]1CC[C@H](C(O)(C(F)(F)F)C(F)(F)F)CC1` [Example 1, trans N-(2,2,2-trifluoro-ethyl)-N-[4-(2,2,2-trifluoro-1-hydroxy-1-trifluoromethyl-ethyl)-cyclohexyl]-benzenesulfonamide], the IC50 is 0.02 µM in test [1] and 0.07 µM in test [2].
